pIC50: −log10 of the molar value.
Experiment: Inhibitory concentration against interleukin-2 binding
Set-up: species or system Homo sapiens

SMILES | pIC50
Cn1nc(-c2cccc(Cl)c2Cl)cc1C1CCN(C(=O)NCC[C@H](N=C(N)N)C(=O)N2CCC3CCCCC3C2)CC1 (stereo partly drawn) | < 4.00
CN(CCCNS(=O)(=O)N1CCC(c2cc(-c3cccc(Cl)c3Cl)nn2C)CC1)C(=N)N | 4.85
Cn1nc(-c2cccc(Cl)c2Cl)cc1C1CCN(C(=O)NCCN=C(N)N)CC1 | < 4.00
N=C(N)N[C@@H](C(=O)NCC(=O)N1CCC(c2cc(-c3cccc(Cl)c3Cl)n[nH]2)CC1)C1CCCCC1 | 5.22
CC(C)[C@H](CCNS(=O)(=O)N1CCC(c2cc(-c3cccc(Cl)c3Cl)nn2C)CC1)N=C(N)N | 4.12
Cn1nc(-c2cccc(Cl)c2Cl)cc1C1CCN(S(=O)(=O)NCCCN=C(N)N)CC1 | 4.64
CN(C)C(=O)[C@H](CCNC(=O)N1CCC(c2cc(-c3cccc(Cl)c3Cl)nn2C)CC1)N=C(N)N | 5.15
CC(C)N(CCCNS(=O)(=O)N1CCC(c2cc(-c3cccc(Cl)c3Cl)nn2C)CC1)C(=N)N | 4.32
CNC(=O)[C@H](CCNC(=O)N1CCC(c2cc(-c3cccc(Cl)c3Cl)nn2C)CC1)N=C(N)N | < 4.00
Cn1nc(-c2cccc(Cl)c2Cl)cc1C1CCN(C(=O)NCCCCN=C(N)N)CC1 | < 4.00
CCCN(CCCNS(=O)(=O)N1CCC(c2cc(-c3cccc(Cl)c3Cl)nn2C)CC1)C(=N)N | 4.49
CC(=O)N1CCN(C(=O)[C@H](CCNC(=O)N2CCC(c3cc(-c4cccc(Cl)c4Cl)nn3C)CC2)N=C(N)N)CC1 | 4.22
CC(C)C[C@H](CCNS(=O)(=O)N1CCC(c2cc(-c3cccc(Cl)c3Cl)nn2C)CC1)N=C(N)N | 4.52
CN(CCCNC(=O)N1CCC(c2cc(-c3cccc(Cl)c3Cl)nn2C)CC1)C(=N)N | 4.80
Cn1nc(-c2cccc(Cl)c2Cl)cc1C1CCN(S(=O)(=O)NCCCCN=C(N)N)CC1 | < 4.00
CCN(CC)C(=O)[C@H](CCNC(=O)N1CCC(c2cc(-c3cccc(Cl)c3Cl)nn2C)CC1)N=C(N)N | 4.96
C[C@H](CCNC(=O)N1CCC(c2cc(-c3cccc(Cl)c3Cl)nn2C)CC1)N=C(N)N | 4.24

SMILES | pIC50
COC(=O)[C@H](Cc1ccc(C#Cc2ccccc2)cc1)NC(=O)C[C@H]1CCCN(C(=N)N)C1 | 5.52
CC(C)C[C@H](CCNC(=O)N1CCC(c2cc(-c3cccc(Cl)c3Cl)nn2C)CC1)N=C(N)N | 4.64
Cn1nc(-c2cccc(Cl)c2Cl)cc1C1CCN(S(=O)(=O)NCCN=C(N)N)CC1 | < 4.00
CC(C)N(CCCNC(=O)N1CCC(c2cc(-c3cccc(Cl)c3Cl)nn2C)CC1)C(=N)N | < 4.00
CC(C)[C@@H](CCNC(=O)N1CCC(c2cc(-c3cccc(Cl)c3Cl)nn2C)CC1)N=C(N)N | < 4.00
COC(=O)[C@H](CCNC(=O)N1CCC(c2cc(-c3cccc(Cl)c3Cl)nn2C)CC1)N=C(N)N | < 4.00
Cn1nc(-c2cccc(Cl)c2Cl)cc1C1CCN(C(=O)NCC[C@H](N=C(N)N)C(=O)O)CC1 | < 4.00
C[C@H](CCNS(=O)(=O)N1CCC(c2cc(-c3cccc(Cl)c3Cl)nn2C)CC1)N=C(N)N | 4.05
CCCN(CCCNC(=O)N1CCC(c2cc(-c3cccc(Cl)c3Cl)nn2C)CC1)C(=N)N | < 4.00
Cn1nc(-c2cccc(Cl)c2Cl)cc1C1CCN(C(=O)NCCCN=C(N)N)CC1 | 4.54
CCN(CC1CC1)C(=O)[C@H](CCNC(=O)N1CCC(c2cc(-c3cccc(Cl)c3Cl)nn2C)CC1)N=C(N)N | 4.22
CN(CCCNS(=O)(=O)N1CCC(c2cc(-c3ccc(OCc4ccc(C(=O)O)o4)c(Cl)c3Cl)nn2C)CC1)C(=N)N | 6.22
CC(C)[C@@H](CCNS(=O)(=O)N1CCC(c2cc(-c3cccc(Cl)c3Cl)nn2C)CC1)N=C(N)N | < 4.00
Cn1nc(-c2cccc(Cl)c2Cl)cc1C1CCN(C(=O)NCC[C@H](N=C(N)N)C(=O)N2CCCC2)CC1 | 4.70
CC(C)[C@H](CCNC(=O)N1CCC(c2cc(-c3cccc(Cl)c3Cl)nn2C)CC1)N=C(N)N | 4.26
CC(C)C[C@@H](NC(=N)N)C(=O)NCC(=O)N1CCC(c2cc(-c3ccc(OCc4ccc(C(=O)O)o4)c(Cl)c3Cl)nn2C)CC1 | 7.22
